Measurements as given in patent US10800754B2, “Heterocyclic amide compound” (TAKEDA PHARMACEUTICAL COMPANY LIMITED, priority 2016, dated 2020).

Biological target: T1, human PRS protein (Homo sapiens, UniProt P07814)
T1 construct: to construct His-Avi-hEPRS (998-1512) expression plasmid; His tag (N); Avi tag (N); TEV cleavage site (ENLYFQ/GS, encoded by forward primer hEPRS-TEV-NheF) (N); made in house; host or cells: E. coli BL21(DE3)
T1 sequence (P07814 998-1512): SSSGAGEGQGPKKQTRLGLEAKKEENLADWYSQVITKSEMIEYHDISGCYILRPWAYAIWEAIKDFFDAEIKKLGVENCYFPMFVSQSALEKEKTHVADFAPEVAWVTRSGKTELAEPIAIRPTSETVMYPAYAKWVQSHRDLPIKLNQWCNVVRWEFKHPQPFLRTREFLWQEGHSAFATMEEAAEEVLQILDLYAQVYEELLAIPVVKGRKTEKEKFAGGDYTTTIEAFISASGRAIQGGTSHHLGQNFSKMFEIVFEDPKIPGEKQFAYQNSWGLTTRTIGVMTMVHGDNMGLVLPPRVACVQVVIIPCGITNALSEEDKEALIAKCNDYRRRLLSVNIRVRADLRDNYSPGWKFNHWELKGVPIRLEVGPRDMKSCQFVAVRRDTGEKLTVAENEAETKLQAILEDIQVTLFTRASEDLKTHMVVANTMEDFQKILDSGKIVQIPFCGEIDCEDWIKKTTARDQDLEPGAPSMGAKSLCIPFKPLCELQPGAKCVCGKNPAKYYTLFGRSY
Assay: PRS inhibitory activity (ATP/[32P]pyrophosphate exchange enzyme reaction)
Assay type: biochemical
Conditions: 300 nM test compound; recombinant human PRS (EPRS 998-1512); read-out: inhibitory rate (%) of PRS
Procedure: The PRS inhibitory activity of the compounds of the present invention was evaluated by the following method.
An expression plasmid of Catalytic Domain of human EPRS was obtained by PCR using human skeletal muscle cDNA Library (Takara Bio Inc.) as a template and 2 kinds of Primers 5′-[…]-3′ (hEPRS-TEV-NheF) (SEQ ID NO: 1) and 5′-[…]-3′ (hEPRS-St-Not-R) (SEQ ID NO: 2). PCR was performed using PrimeStar GXL DNA Polymerase (Takara Bio Inc.) and included (1) 98° C., 1 min, (2) cycles of 98° C., 10 sec, 65° C., 10 sec, 72° C., 1 min, and (3) reaction at 72° C., 1 min. This was cleaved with Nhe I and Not I (Takara Bio Inc.) and inserted using Ligation High (TOYOBO CO., LTD.) into the Nhe I/Not I site of pET21a (Novagen) with His-Avitag inserted thereinto. This was introduced into ECOS JM109 (NIPPON GENE CO., LTD.) to construct His-Avi-hEPRS (998-1512) expression plasmid.
Recombinant human PRS protein was prepared by transforming the His-Avi-hEPRS (998-1512) expression plasmid prepared above into ECOS Competent E. coli BL21(DE3) (NIPPON GENE CO., LTD.). Escherichia coli obtained by transformation was inoculated into 300 mL of LB medium (1% peptone, 0.5% yeast extract, 0.5% sodium chloride, 0.01% ampicillin) and cultured at 30° C. for 16 hr. The obtained culture medium was transferred into a jar culture tank charged with 6 L of the main fermentation medium (0.3% potassium dihydrogen phosphate, 0.6% disodium hydrogen phosphate, 0.1% ammonium chloride, 0.05% sodium chloride, 0.024% magnesium sulfate, 0.02% NEWPOL LB-625, 1.5% sorbitol, 1.5% casamino acid, 0.5% yeast extract, 0.01% ampicillin) and culturing was started at 37° C., quantity of airflow 5 L/min, stirring rotating speed 400 rpm. At the time point when the turbidity of the culture medium reached about 550 Klett units, the culture temperature was lowered to 16° C., isopropyl-β-D-thiogalactopyranoside (IPTG) was added to the final concentration 0.1 mM, and culturing was performed for another 16 hr to induce expression of human PRS. After completion of culturing, the culture medium was centrifuged at 5,000 rpm for 10 min. The obtained human PRS expressing Escherichia coli was suspended in a buffer containing 50 mM Tris-HCl (pH 8.0), 150 mM NaCl, 1 mM DTT, 5 U/ml Benzonase, 20 mM Imidazole and sonicated using Sonifier (BRANSON). The homogenate was centrifuged (33,000×G, 60 min, Beckman Coulter), the obtained supernatant was subjected to adsorption by passage through Ni-NTA Superflow (QIAGEN) column equilibrated in advance with 50 mM Tris-HCl (pH 8.0), 300 mM NaCl, 1 mM DTT, and elution was performed with a buffer containing 50 mM Tris-HCl (pH 8.0), 300 mM NaCl, 1 mM DTT, 250 mM Imidazole. Furthermore, gel filtration was performed using […] equilibrated in advance with a buffer containing 50 mM Tris-HCl (pH 8.0), 150 mM NaCl, 1 mM DTT, 10% glycerol to give purified human PRS protein. The protein concentration was measured using BCA Protein Assay Kit (PIERCE) and BSA as the standard.
A test compound was dissolved in 5 μL of an assay buffer (50 mM Tris-HCl (pH 7.5), 20 mM KCl, 1 mM DTT, 0.01% Tween 20) and incubated for 60 min with 5 μL of 40 nM human PRS protein dissolved in the assay buffer containing 40 mM MgCl2. An enzyme reaction of the human PRS protein was started by adding 10 μL of a substrate solution containing 300 μM ATP, 160 μM L-Proline, 400 μM pyrophosphate, [^32P]pyrophosphate (PerkinElmer, Waltham, Mass.) prepared to 1 MBq/mL. After incubation at room temperature for 30 min, the reaction was discontinued by adding 50 μL of discontinuation/washing solution (1M HCl, 200 mM sodium pyrophosphate) to the reaction mixture. The reaction solution was transferred to a filter plate (Merck Millipore, Billerica, Mass.) previously added with 200 μL of charcoal solution (0.5% HCl solution containing 10% charcoal (w/v)). […]

Row | Structure (SMILES) | inhibition at 0.3 µM [%]
1 | COc1cccc(CC(=O)Nc2cc(N3CC[C@@](C#N)(C4CC4)C3=O)ccn2)c1 [Example 10, N-(4-((3S)-3-cyano-3-cyclopropyl-2-oxopyrrolidin-1-yl)pyridin-2-yl)-2-(3-methoxyphenyl)acetamide] | 88
2 | N#C[C@@]1(C2CC2)CCN(c2ccnc(NC(=O)Cc3ccsc3)c2)C1=O [Example 15, N-(4-((3S)-3-cyano-3-cyclopropyl-2-oxopyrrolidin-1-yl)pyridin-2-yl)-2-(3-thienyl)acetamide] | 84
3 | N#C[C@@]1(C2CC2)CCN(c2ccnc(NC(=O)Cc3cccs3)c2)C1=O [Example 16, N-(4-((3S)-3-cyano-3-cyclopropyl-2-oxopyrrolidin-1-yl)pyridin-2-yl)-2-(2-thienyl)acetamide] | 88
4 | N#C[C@@]1(C2CC2)CCN(c2ccnc(NC(=O)Cc3ccc(Cl)s3)c2)C1=O [Example 17, 2-(5-chloro-2-thienyl)-N-(4-((3S)-3-cyano-3-cyclopropyl-2-oxopyrrolidin-1-yl)pyridin-2-yl)acetamide] | 83
5 | C=CC[C@]1(C#N)CCN(c2ccnc(NC(=O)Cc3cccc(-c4cnn(C)c4)c3)c2)C1=O [Example 22, N-(4-((3R)-3-allyl-3-cyano-2-oxopyrrolidin-1-yl)pyridin-2-yl)-2-(3-(1-methyl-1H-pyrazol-4-yl)phenyl)acetamide] | 87
6 | C=CC[C@]1(C#N)CCN(c2ccnc(NC(=O)Cc3cccc(-c4ccsc4)c3)c2)C1=O [Example 24, N-(4-((3R)-3-allyl-3-cyano-2-oxopyrrolidin-1-yl)pyridin-2-yl)-2-(3-(3-thienyl)phenyl)acetamide] | 71
7 | C=CC[C@]1(C#N)CCN(c2ccnc(NC(=O)Cc3cccc(-c4ccncc4)c3)c2)C1=O [Example 25, N-(4-((3R)-3-allyl-3-cyano-2-oxopyrrolidin-1-yl)pyridin-2-yl)-2-(3-(pyridin-4-yl)phenyl)acetamide] | 61
8 | N#C[C@@]1(C2CC2)CCN(c2ccnc(NC(=O)Cc3cccc(-c4cccnc4)c3)c2)C1=O [Example 34, N-(4-((3S)-3-cyano-3-cyclopropyl-2-oxopyrrolidin-1-yl)pyridin-2-yl)-2-(3-(pyridin-3-yl)phenyl)acetamide] | 97
9 | N#Cc1ccc(-c2cccc(CC(=O)Nc3cc(N4CC[C@@](C#N)(C5CC5)C4=O)ccn3)c2)s1 [Example 36, N-(4-((3S)-3-cyano-3-cyclopropyl-2-oxopyrrolidin-1-yl)pyridin-2-yl)-2-(3-(5-cyano-2-thienyl)phenyl)acetamide] | 96
10 | Cn1cc(-c2cccc(CC(=O)Nc3cc(N4CCC(C)(C)C4=O)ccn3)c2)cn1 [Example 43, N-(4-(3,3-dimethyl-2-oxopyrrolidin-1-yl)pyridin-2-yl)-2-(3-(1-methyl-1H-pyrazol-4-yl)phenyl)acetamide] | 88
11 | Cc1cc(N2CCC(C)(C)C2=O)cc(NC(=O)Cc2cccc(-c3cnn(C)c3)c2)n1 [Example 49, N-(4-(3,3-dimethyl-2-oxopyrrolidin-1-yl)-6-methylpyridin-2-yl)-2-(3-(1-methyl-1H-pyrazol-4-yl)phenyl)acetamide] | 83

The next lines start with the values.

Row | inhibition at 0.3 µM [%] | Structure (SMILES)
12 | 84 | N#C[C@@]1(C2CC2)CCN(c2ccnc(NC(=O)Cc3cccc(Cl)c3)c2)C1=O [Example 1, 2-(3-chlorophenyl)-N-(4-((3S)-3-cyano-3-cyclopropyl-2-oxopyrrolidin-1-yl)pyridin-2-yl)acetamide]
13 | 85 | N#C[C@@]1(C2CC2)CCN(c2ccnc(NC(=O)Cc3ccccc3)c2)C1=O [Example 2, N-(4-((3S)-3-cyano-3-cyclopropyl-2-oxopyrrolidin-1-yl)pyridin-2-yl)-2-phenylacetamide]
14 | 93 | N#C[C@@]1(C2CC2)CCN(c2ccnc(NC(=O)Cc3cccc4ccccc34)c2)C1=O [Example 3, N-(4-((3S)-3-cyano-3-cyclopropyl-2-oxopyrrolidin-1-yl)pyridin-2-yl)-2-(1-naphthyl)acetamide]
15 | 62 | N#C[C@@]1(C2CC2)CCN(c2ccnc(NC(=O)Cc3ccccc3Cl)c2)C1=O [Example 5, 2-(2-chlorophenyl)-N-(4-((3S)-3-cyano-3-cyclopropyl-2-oxopyrrolidin-1-yl)pyridin-2-yl)acetamide]
16 | 94 | N#C[C@@]1(C2CC2)CCN(c2ccnc(NC(=O)Cc3cccc(-c4ccccc4)c3)c2)C1=O [Example 9, 2-(biphenyl-3-yl)-N-(4-((3S)-3-cyano-3-cyclopropyl-2-oxopyrrolidin-1-yl)pyridin-2-yl)acetamide]
17 | 85 | Cc1cccc(CC(=O)Nc2cc(N3CC[C@@](C#N)(C4CC4)C3=O)ccn2)c1 [Example 11, N-(4-((3S)-3-cyano-3-cyclopropyl-2-oxopyrrolidin-1-yl)pyridin-2-yl)-2-(3-methylphenyl)acetamide]
18 | 89 | N#C[C@@]1(C2CC2)CCN(c2ccnc(NC(=O)Cc3cccc(F)c3)c2)C1=O [Example 13, N-(4-((3S)-3-cyano-3-cyclopropyl-2-oxopyrrolidin-1-yl)pyridin-2-yl)-2-(3-fluorophenyl)acetamide]
19 | 70 | N#C[C@@]1(C2CC2)CCN(c2ccnc(NC(=O)Cc3ccccc3F)c2)C1=O [Example 14, N-(4-((3S)-3-cyano-3-cyclopropyl-2-oxopyrrolidin-1-yl)pyridin-2-yl)-2-(2-fluorophenyl)acetamide]
20 | 89 | N#C[C@@]1(C2CC2)CCN(c2ccnc(NC(=O)Cc3cccc(Br)c3)c2)C1=O [Example 21, 2-(3-bromophenyl)-N-(4-((3S)-3-cyano-3-cyclopropyl-2-oxopyrrolidin-1-yl)pyridin-2-yl)acetamide]
21 | 94 | N#C[C@@]1(C2CC2)CCN(c2ccnc(NC(=O)Cc3csc4ccccc34)c2)C1=O [Example 28, 2-(1-benzothiophen-3-yl)-N-(4-((3S)-3-cyano-3-cyclopropyl-2-oxopyrrolidin-1-yl)pyridin-2-yl)acetamide]
22 | 80 | N#CC1(C2CCC2)CCN(c2ccnc(NC(=O)Cc3cccc4ccccc34)c2)C1=O (stereo not shown) [Example 33, N-(4-(3-cyano-3-cyclobutyl-2-oxopyrrolidin-1-yl)pyridin-2-yl)-2-(1-naphthyl)acetamide]
